# Measurements taken from patent US9034876B2, “Treatment of chronic inflammation with a 1,2,4-triazolo [1,5a] pyridine derivative” (Cephalon, Inc., priority 2010, dated 2015).
# Test system: phospho-STAT3
# Experiment: CAIA model, paw phospho-STAT3 (Luminex bead assay)
# Assay type: in vivo, female DBA/1 mice
# Conditions: Dex 1.5 mg/kg i.p. three times a week (day 6-8)
# Method: DBA/1 female mice were injected i.v. with purified anti-collagen type II antibodies, then given 25 μg of LPS i.p. three days later to induce arthritis by day 5. Mice that met the arthritis criteria score of 1 per paw were entered into the study. Compound A was provided orally, b.i.d., for all doses tested; Dex was provided at 1.5 mg/kg three times a week, i.p.; and vehicle (PEG400+1% DMSO) was provided orally.
# The graphed data was generated using Luminex® bead kits, concentration in units per ml per 3 mg of total protein as determined by the BSA assay. The graphed data represents mean±SEM, statistics were performed using 2-way ANOVA analysis.
# To investigate the effect of Compound A on levels of phosphorylated STATs and cytokines in the paws of treated mice, a method was developed whereby synovial fluid and cellular joint extracts could be obtained from the paws and ankles of diseased animals for analysis using multiplex bead arrays [32]. […] Consequently, multiplex analysis was used as the primary method of measuring phosphorylated STATs for all experiments described herein.
# Briefly, the front (including carpus) and back (including tarsus) right paws were collected and frozen in dry-ice cooled isopentane and stored at −80° C. until use. The paws were cut to 2 mm×2 mm segments and kept on dry-ice in round bottom polypropylene tubes. Seven hundred microliters tissue extraction buffer containing protease inhibitor cocktail (Calbiochem, San Diego, Calif.) and Halt phosphatase inhibitor cocktail (Thermo Scientific, Rockford, Ill.) or Roche phosphatase inhibitor cocktail (Roche, Indianapolis, Ind.) in tissue extraction reagent I (Invitrogen, Carlesbad, Calif.) were added to each sample. Samples were homogenized frozen using a PT 10-35 Polytron homogenizer. After homogenization, samples were centrifuged at 4° C. for 2000×g for 10 minutes and supernatants re-centrifuged at 4° C. at maximum speed, 14,000×g, for 15 minutes. Supernatants were carefully removed to avoid picking up the top layer of lipids/adipose debris. Protein concentration was measured using a BCA protein assay (Pierce, Rockford, Ill.) and adjusted to 3 mg/ml. A minimum of 25 μl of this extraction was used in the above described protocol using the mouse cytokine 10-plex bead kit (Invitrogen, Carlsbad, Calif.) or phosphorylated STAT1, 3, 5a/b, 3-plex kit (Invitrogen, Carlsbad, Calif.).
structure (smiles),measurement,value
"C[C@@H]1C[C@H]2[C@@H]3CCC4=CC(=O)C=C[C@]4(C)[C@@]3(F)[C@@H](O)C[C@]2(C)[C@@]1(O)C(=O)CO [Dex, Dexamethasone, reference compound]",time post treatment initiation at which the pSTAT3 reduction was reached,48 hours
